{
  "source": "patent US8466122B2",
  "about": "“Trialkyl cationic lipids and methods of use thereof” (Protiva Biotherapeutics, Inc., priority 2010, dated 2013)",
  "test_system": "ApoB mRNA level in the liver",
  "test": "Liver ApoB mRNA knockdown by 1:57 SNALP with ApoB siRNA in mice (QuantiGene assay, normalized to GAPDH mRNA)",
  "type": "in vivo, female BALB/c mice",
  "conditions": "IV bolus 0.05 mg/kg siRNA, mouse liver 48 h after dosing, compared to SNALP containing the C2K benchmark cationic lipid",
  "description": "In particular, the objective of this study was to assess the ApoB dose response gene silencing activity in the mouse liver of 1:57 SNALP containing various novel trialkyl cationic lipids of Formula I. The ApoB siRNA sequence used in this study is provided in Table 1.\nJust prior to the first treatment, animals were weighed and dose amounts were calculated based on the weight of individual animals (equivalent to 10 mL/kg, rounded to the nearest 10 μL). The test article was administered by IV injection through the tail vein once on Day 0 (1 dose total per animal).\nAnimals were sacrificed on Day 2, 48 h after test article administration. […] A brief necropsy was performed and observations recorded. […]\nBody weight was reported for individual animals in addition to group mean and standard deviation of the group mean. Data were expressed in terms of the measured unit (grams) and the group mean difference from PBS vehicle control treatment was calculated for this expression (include SD). For body weights, individual animal data were also expressed as % of pre-treatment value and the group means were expressed as % change from pre-treatment value (include SD). […] Drug activity was measured using a QuantiGene assay for ApoB mRNA level in the liver (normalized to GAPDH mRNA level). […] Data were expressed in terms of the measured unit as well as difference from PBS vehicle control treatment. […]",
  "data": [
    {"smiles": "CCCCC/C=C\\C/C=C\\CCCCCCCCC(OC(=O)CCCCN(C)C)C(O)(CCCCCCCC/C=C\\C/C=C\\CCCCC)CCCCCCCC/C=C\\C/C=C\\CCCCC", "note": "(stereo not shown) [Compound 13-B4, (6Z,9Z,29Z,32Z)-20-hydroxy-20-((9Z,12Z)-octadeca-9,12-dienyl)octatriaconta-6,9,29,32-tetraen-19-yl 5-(dimethylamino)pentanoate]", "values": [
      {"measurement": "liver ApoB mRNA knockdown activity (ApoB silencing activity)", "result": "unexpectedly improved ApoB silencing activity"}
    ]}
  ]
}
